# According to patent US7531539B2, “Pyrrolotriazine kinase inhibitors” (Bristol-Myers Squibb Company, priority 2006, dated 2009):
# Columns and labels:
# [1] = target: Casein Kinase 2 A2 kinase (Homo sapiens, UniProt P19784); test: CK2A2 kinase assay (33P, TCA precipitation); format: biochemical
# Experimental: (§1) Incubation mixtures employed for the Casein Kinase 2 A2 kinase assay contain Casein Kinase 2 A2 kinase, a synthetic peptide substrate, ATP, ATP-γ^33P and a Hepes buffer containing Mg^++, NaCl, DTT, and Brij-35. Reactions were incubated for 60 minutes at 30° C. and stopped by the addition of trichloroacetic acid (TCA) to a final concentration 8%. TCA precipitates were collected onto GF/C unifilter plates using a Filtermate universal harvester and the filters are quantitated using a TopCount 96/384-well liquid scintillation counter. Dose response curves were generated to determine the concentration required to inhibit 50% of kinase activity (IC^50). Compounds were dissolved at 10 mM in dimethyl sulfoxide (DMSO) and evaluated at ten concentrations, each in duplicate. The final concentration of DMSO in the assay is 1.7%. IC50 values were derived by non-linear regression.
# [2] = target: Casein Kinase 2 A1 kinase (Homo sapiens, UniProt P68400); test: CK2A1 kinase assay (33P, TCA precipitation); format: biochemical
# Experimental: as §1, with “2 A1” for “2 A2”, “contain Casecin” for “contain Casein”, “ATP, ATP-γ-^33 P” for “ATP, ATP-γ^33P”, “containing Mg^2+,” for “containing Mg^++,”, “activity (IC50).” for “activity (IC^50).”
# Sequence of Casein Kinase 2 A2 kinase (P19784 whole entry): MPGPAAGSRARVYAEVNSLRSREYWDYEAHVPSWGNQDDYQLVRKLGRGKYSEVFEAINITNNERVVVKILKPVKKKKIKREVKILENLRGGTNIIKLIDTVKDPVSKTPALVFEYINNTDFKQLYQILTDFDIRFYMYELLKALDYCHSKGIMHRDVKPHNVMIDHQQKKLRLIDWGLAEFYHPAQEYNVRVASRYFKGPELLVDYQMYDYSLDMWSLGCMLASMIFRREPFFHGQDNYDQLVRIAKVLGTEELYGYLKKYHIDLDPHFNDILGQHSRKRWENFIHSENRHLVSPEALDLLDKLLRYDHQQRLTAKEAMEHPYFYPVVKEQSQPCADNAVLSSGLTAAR
# Sequence of Casein Kinase 2 A1 kinase (P68400 whole entry): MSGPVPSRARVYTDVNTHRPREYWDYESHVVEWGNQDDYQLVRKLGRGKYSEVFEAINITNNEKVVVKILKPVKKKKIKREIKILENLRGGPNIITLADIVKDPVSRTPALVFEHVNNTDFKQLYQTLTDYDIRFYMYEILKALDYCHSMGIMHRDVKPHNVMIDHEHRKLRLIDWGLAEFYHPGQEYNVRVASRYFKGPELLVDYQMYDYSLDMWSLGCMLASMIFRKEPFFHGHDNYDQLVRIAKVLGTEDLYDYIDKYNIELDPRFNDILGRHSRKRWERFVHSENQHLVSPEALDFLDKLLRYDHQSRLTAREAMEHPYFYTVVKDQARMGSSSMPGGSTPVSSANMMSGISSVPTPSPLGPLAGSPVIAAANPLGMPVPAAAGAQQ
IC50 [1],IC50 [2],Compound
91 nM,670 nM,"c1ccc(-c2cc(Nc3nc(N4CCC(c5cccnc5)C4)nn4cccc34)[nH]n2)cc1 (centres unmarked) [Example 174, N-(3-phenyl-1H-pyrazol-5-yl)-2-(3-(pyridin-3-yl)pyrrolidin-1-yl)pyrrolo[1,2f][1,2,4]triazin-4-amine]"
56 nM,243 nM,"Cc1cc(Nc2nc(N3CCC(c4ccncc4)CC3)nn3cccc23)[nH]n1 [Example 203, N-(3-methyl-1H-pyrazol-5-yl)-2-(4-(pyridin-4-yl)piperidin-1-yl)pyrrolo[1,2-f][1,2,4]triazin-4-amine]"
13 nM,131 nM,"CC1C[C@@H]1c1cc(Nc2nc(N3CCC(c4cccnc4)C3)nn3cccc23)[nH]n1 (stereo partly drawn) [Example 182, N-(3-((1S,2S)-2-methylcyclopropyl)-1H-pyrazol-5-yl)-2-(3-(pyridin-3-yl)pyrrolidin-1-yl)pyrrolo[1,2-f][1,2,4]triazin-4-amine]"
89 nM,872 nM,"2-(3-(2-methoxyphenyl)pyrrolidin-1-yl)-N-(3-methyl-1H-pyrazol-5-yl)pylTolo[1,2-f][1,2,4]triazin-4-amine [Example 176]"
43 nM,349 nM,"COc1ncccc1C1CCN(c2nc(Nc3cc(C)n[nH]3)c3cccn3n2)C1 (centres unmarked) [Example 213, 2-(3-(2-methoxypyridin-3-yl)pyrrolidin-1-yl)-N-(3-methyl-1H-pyrazol-5-yl)pyrrolo[1,2-f][1,2,4]triazin-4-amine]"
25 nM,159 nM,"Cc1cc(Nc2nc(N3Cc4ccccc4C3)nn3cccc23)[nH]n1 [Example 201, 2-(isoindolin-2-yl)-N-(3-methyl-1,2-f][1,2,4]triazin-4-amine]"
99 nM,1380 nM,"COc1ccc(C2CCN(c3nc(Nc4cc(C)n[nH]4)c4cccn4n3)C2)cn1 (centres unmarked) [Example 212, (3-(6-Methoxypyridin-3-yl)pyrrolidin-1-yl)-N-(3-methyl-1H-pyrazol-5-yl)pyrrolo[1,2-f][1,2,4]triazin-4-amine]"
39 nM,294 nM,"Cc1cc(Nc2nc(N3CCC(c4ccccc4)C3)nn3cccc23)[nH]n1 (centres unmarked) [Example 186, N-(5-methyl-1H-pyrazol-3-yl)-2-(3-phenylpyrrolidin-1-yl)pyrrolo[1,2-f][1,2,4]triazin-4-amine]"
379 nM,2350 nM,"Cc1cc(Nc2nc(N3CCC(CC(=O)O)C3)nn3cccc23)[nH]n1 (centres unmarked) [Example 199, 2-(1-(4-(3-methyl-1H-pyrazol-5-ylamino)pyrrolo[1,2-f][1,2,4]triazin-2-yl)pyrrolidin-3-yl)acetic acid]"
14 nM,177 nM,"c1ccc(C2CCN(c3nc(Nc4cc(C5CC5)n[nH]4)c4cccn4n3)C2)cc1 (centres unmarked) [Example 184, N-(3-cyclopropyl-1H-pyrazol-5-yl)-2-(3-phenylpyrrolidin-1-yl)pyrrolo[1,2-f][1,2,4]triazin-4-amine]"
